{"source": "patent US20080280862A1", "about": "“Methods, compositions, and kits for the treatment of pain” (priority 2007, published 2008)", "key": {"[1]": {"tested_on": "formalin-induced pain model in rats", "assay": "Formalin pain model, nociceptive behaviors", "format": "in vivo, Sprague-Dawley rats", "settings": "Experiment One, amitriptyline", "method_in_brief": "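Male Sprague-Dawley rats dosed intraperitoneally once daily on days −2 and −1 and 30 min before 2% formalin injection into the right hindpaw plantar surface. Lifting, licking and biting were timed by a blinded observer over 1 h, phase I and phase II, reported per 5-min period.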"}, "[2]": {"tested_on": "carrageenan-induced pain model in rats", "assay": "Carrageenan pain model, mechanical allodynia by Von Frey filaments", "format": "in vivo, Sprague-Dawley rats", "method_in_brief": "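Male Sprague-Dawley rats dosed IP once daily on days −2 and −1 and 30 min before intraplantar 0.1 ml 2% carrageenan. Von Frey withdrawal force (g) measured at 0–120 min post-injection; values are mean change from pre-dose baseline across five timepoints. Synergy by median-effect model and combination index.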"}}}
{"smiles": "CN(C)CCC=C1c2ccccc2CCc2ccccc21", "note": "[Amitriptyline]", "values": [{"measurement": "Mean number of behaviors per 5 minute block", "setting": "[1]; 1 mg/kg, 5 minutes", "value": "233.0 ± 10.0"}, {"measurement": "Mean number of behaviors per 5 minute block", "setting": "[1]; 1 mg/kg, 10 minutes", "value": "52.0 ± 23"}, {"measurement": "Mean number of behaviors per 5 minute block", "setting": "[1]; 1 mg/kg, 15 minutes", "value": "84.0 ± 28.0"}, {"measurement": "Mean number of behaviors per 5 minute block", "setting": "[1]; 1 mg/kg, 20 minutes", "value": "49.0 ± 39.0"}, {"measurement": "Mean number of behaviors per 5 minute block", "setting": "[1]; 1 mg/kg, 25 minutes", "value": "228.0 ± 31.0"}, {"measurement": "Mean number of behaviors per 5 minute block", "setting": "[1]; 1 mg/kg, 30 minutes", "value": "244.0 ± 19.0"}, {"measurement": "Mean number of behaviors per 5 minute block", "setting": "[1]; 1 mg/kg, 35 minutes", "value": "240.0 ± 17.0"}, {"measurement": "Mean number of behaviors per 5 minute block", "setting": "[1]; 1 mg/kg, 40 minutes", "value": "214.0 ± 27.0"}, {"measurement": "Mean number of behaviors per 5 minute block", "setting": "[1]; 1 mg/kg, 45 minutes", "value": "167.0 ± 31.0"}, {"measurement": "Mean number of behaviors per 5 minute block", "setting": "[1]; 1 mg/kg, 50 minutes", "value": "63.0 ± 23.0"}, {"measurement": "Mean number of behaviors per 5 minute block", "setting": "[1]; 1 mg/kg, 55 minutes", "value": "39.0 ± 21.0"}, {"measurement": "Mean number of behaviors per 5 minute block", "setting": "[1]; 1 mg/kg, 60 minutes", "value": "28.0 ± 23.0"}, {"measurement": "Mean number of behaviors per 5 minute block", "setting": "[1]; 3 mg/kg, 5 minutes", "value": "206.0 ± 16.2"}, {"measurement": "Mean number of behaviors per 5 minute block", "setting": "[1]; 3 mg/kg, 10 minutes", "value": "59.0 ± 23.2"}, {"measurement": "Mean number of behaviors per 5 minute block", "setting": "[1]; 3 mg/kg, 15 minutes", "value": "64.0 ± 21.6"}, {"measurement": "Mean number of behaviors per 5 minute block", "setting": "[1]; 3 mg/kg, 20 minutes", "value": "166.0 ± 36.7"}, {"measurement": "Mean number of behaviors per 5 minute block", "setting": "[1]; 3 mg/kg, 25 minutes", "value": "229.0 ± 29.4"}, {"measurement": "Mean number of behaviors per 5 minute block", "setting": "[1]; 3 mg/kg, 30 minutes", "value": "242.0 ± 27.6"}, {"measurement": "Mean number of behaviors per 5 minute block", "setting": "[1]; 3 mg/kg, 35 minutes", "value": "210.0 ± 35.9"}, {"measurement": "Mean number of behaviors per 5 minute block", "setting": "[1]; 3 mg/kg, 40 minutes", "value": "242.0 ± 30.3"}, {"measurement": "Mean number of behaviors per 5 minute block", "setting": "[1]; 3 mg/kg, 45 minutes", "value": "174.0 ± 36.0"}, {"measurement": "Mean number of behaviors per 5 minute block", "setting": "[1]; 3 mg/kg, 50 minutes", "value": "119.0 ± 45.0"}, {"measurement": "Mean number of behaviors per 5 minute block", "setting": "[1]; 3 mg/kg, 55 minutes", "value": "73.0 ± 36.6"}, {"measurement": "Mean number of behaviors per 5 minute block", "setting": "[1]; 3 mg/kg, 60 minutes", "value": "47.0 ± 26.9"}, {"measurement": "Mean number of behaviors per 5 minute block", "setting": "[1]; 10 mg/kg, 5 minutes", "value": "217.0 ± 18.1"}, {"measurement": "Mean number of behaviors per 5 minute block", "setting": "[1]; 10 mg/kg, 10 minutes", "value": "16.0 ± 8.8"}, {"measurement": "Mean number of behaviors per 5 minute block", "setting": "[1]; 10 mg/kg, 15 minutes", "value": "45.0 ± 24.1"}, {"measurement": "Mean number of behaviors per 5 minute block", "setting": "[1]; 10 mg/kg, 20 minutes", "value": "84.0 ± 39.0"}, {"measurement": "Mean number of behaviors per 5 minute block", "setting": "[1]; 10 mg/kg, 25 minutes", "value": "128.0 ± 41.0"}, {"measurement": "Mean number of behaviors per 5 minute block", "setting": "[1]; 10 mg/kg, 30 minutes", "value": "151.0 ± 40.9"}, {"measurement": "Mean number of behaviors per 5 minute block", "setting": "[1]; 10 mg/kg, 35 minutes", "value": "152.0 ± 41.1"}, {"measurement": "Mean number of behaviors per 5 minute block", "setting": "[1]; 10 mg/kg, 40 minutes", "value": "138.0 ± 39.4"}, {"measurement": "Mean number of behaviors per 5 minute block", "setting": "[1]; 10 mg/kg, 45 minutes", "value": "67.0 ± 26.7"}, {"measurement": "Mean number of behaviors per 5 minute block", "setting": "[1]; 10 mg/kg, 50 minutes", "value": "70.0 ± 27.8"}, {"measurement": "Mean number of behaviors per 5 minute block", "setting": "[1]; 10 mg/kg, 55 minutes", "value": "42.0 ± 13.8"}, {"measurement": "Mean number of behaviors per 5 minute block", "setting": "[1]; 10 mg/kg, 60 minutes", "value": "45.0 ± 25.2"}, {"measurement": "Mean number of behaviors per 5 minute block", "setting": "[1]; 20 mg/kg, 5 minutes", "value": "168.0 ± 24.3"}, {"measurement": "Mean number of behaviors per 5 minute block", "setting": "[1]; 20 mg/kg, 10 minutes", "value": "41.0 ± 22.4"}, {"measurement": "Mean number of behaviors per 5 minute block", "setting": "[1]; 20 mg/kg, 15 minutes", "value": "1.0 ± 0.9"}, {"measurement": "Mean number of behaviors per 5 minute block", "setting": "[1]; 20 mg/kg, 20 minutes", "value": "13.0 ± 10.2"}, {"measurement": "Mean number of behaviors per 5 minute block", "setting": "[1]; 20 mg/kg, 25 minutes", "value": "32.0 ± 13.7"}, {"measurement": "Mean number of behaviors per 5 minute block", "setting": "[1]; 20 mg/kg, 30 minutes", "value": "81.0 ± 34.3"}, {"measurement": "Mean number of behaviors per 5 minute block", "setting": "[1]; 20 mg/kg, 35 minutes", "value": "93.0 ± 41.3"}, {"measurement": "Mean number of behaviors per 5 minute block", "setting": "[1]; 20 mg/kg, 40 minutes", "value": "85.0 ± 37.2"}, {"measurement": "Mean number of behaviors per 5 minute block", "setting": "[1]; 20 mg/kg, 45 minutes", "value": "99.0 ± 34.0"}, {"measurement": "Mean number of behaviors per 5 minute block", "setting": "[1]; 20 mg/kg, 50 minutes", "value": "82.0 ± 33.8"}, {"measurement": "Mean number of behaviors per 5 minute block", "setting": "[1]; 20 mg/kg, 55 minutes", "value": "66.0 ± 36.8"}, {"measurement": "Mean number of behaviors per 5 minute block", "setting": "[1]; 20 mg/kg, 60 minutes", "value": "59.0 ± 31.1"}, {"measurement": "Mean change from baseline ± SEM", "setting": "[2]; Experiment One, 1 mg/kg, 20 minutes", "value": "3.40 ± 3.40", "unit": "g"}, {"measurement": "Mean change from baseline ± SEM", "setting": "[2]; Experiment One, 1 mg/kg, 40 minutes", "value": "-49.80 ± 5.19", "unit": "g"}, {"measurement": "Mean change from baseline ± SEM", "setting": "[2]; Experiment One, 1 mg/kg, 60 minutes", "value": "-113.80 ± 7.21", "unit": "g"}, {"measurement": "Mean change from baseline ± SEM", "setting": "[2]; Experiment One, 1 mg/kg, 80 minutes", "value": "-177.80 ± 10.44", "unit": "g"}, {"measurement": "Mean change from baseline ± SEM", "setting": "[2]; Experiment One, 1 mg/kg, 120 minutes", "value": "-231.00 ± 12.33", "unit": "g"}, {"measurement": "Mean change from baseline ± SEM", "setting": "[2]; Experiment One, 3 mg/kg, 20 minutes", "value": "11.40 ± 5.82", "unit": "g"}, {"measurement": "Mean change from baseline ± SEM", "setting": "[2]; Experiment One, 3 mg/kg, 40 minutes", "value": "-56.60 ± 9.09", "unit": "g"}, {"measurement": "Mean change from baseline ± SEM", "setting": "[2]; Experiment One, 3 mg/kg, 60 minutes", "value": "-120.60 ± 11.72", "unit": "g"}, {"measurement": "Mean change from baseline ± SEM", "setting": "[2]; Experiment One, 3 mg/kg, 80 minutes", "value": "-173.80 ± 9.90", "unit": "g"}, {"measurement": "Mean change from baseline ± SEM", "setting": "[2]; Experiment One, 3 mg/kg, 120 minutes", "value": "-192.10 ± 10.67", "unit": "g"}, {"measurement": "Mean change from baseline ± SEM", "setting": "[2]; Experiment One, 10 mg/kg, 20 minutes", "value": "11.30 ± 5.83", "unit": "g"}, {"measurement": "Mean change from baseline ± SEM", "setting": "[2]; Experiment One, 10 mg/kg, 40 minutes", "value": "-41.90 ± 9.86", "unit": "g"}, {"measurement": "Mean change from baseline ± SEM", "setting": "[2]; Experiment One, 10 mg/kg, 60 minutes", "value": "-99.10 ± 11.33", "unit": "g"}, {"measurement": "Mean change from baseline ± SEM", "setting": "[2]; Experiment One, 10 mg/kg, 80 minutes", "value": "-148.90 ± 12.63", "unit": "g"}, {"measurement": "Mean change from baseline ± SEM", "setting": "[2]; Experiment One, 10 mg/kg, 120 minutes", "value": "-177.70 ± 16.01", "unit": "g"}, {"measurement": "Mean change from baseline ± SEM", "setting": "[2]; Experiment One, 20 mg/kg, 20 minutes", "value": "19.90 ± 6.68", "unit": "g"}, {"measurement": "Mean change from baseline ± SEM", "setting": "[2]; Experiment One, 20 mg/kg, 40 minutes", "value": "-33.30 ± 7.80", "unit": "g"}, {"measurement": "Mean change from baseline ± SEM", "setting": "[2]; Experiment One, 20 mg/kg, 60 minutes", "value": "-93.30 ± 7.80", "unit": "g"}, {"measurement": "Mean change from baseline ± SEM", "setting": "[2]; Experiment One, 20 mg/kg, 80 minutes", "value": "-138.60 ± 6.03", "unit": "g"}, {"measurement": "Mean change from baseline ± SEM", "setting": "[2]; Experiment Two, first set of rows, 3 mg/kg, 20 minutes", "value": "-2.20 ± 3.62", "unit": "g"}, {"measurement": "Mean change from baseline ± SEM", "setting": "[2]; Experiment Two, first set of rows, 3 mg/kg, 40 minutes", "value": "-6.19 ± 5.21", "unit": "g"}, {"measurement": "Mean change from baseline ± SEM", "setting": "[2]; Experiment Two, first set of rows, 3 mg/kg, 60 minutes", "value": "-1.60 ± 3.83", "unit": "g"}, {"measurement": "Mean change from baseline ± SEM", "setting": "[2]; Experiment Two, first set of rows, 3 mg/kg, 80 minutes", "value": "15.70 ± 5.20", "unit": "g"}, {"measurement": "Mean change from baseline ± SEM", "setting": "[2]; Experiment Two, first set of rows, 3 mg/kg, 120 minutes", "value": "26.61 ± 4.90", "unit": "g"}]}
